Assay results published in patent publication EP3248604A1, “AGENTS FOR MODULATION OF WNT-TCF SIGNALLING AND USES THEREOF” (UNIVERSITE DE GENEVE, priority 2016, dated 2017).

Tested on: WNT-TCF targets
Experiment: RT-qPCR gene expression in Ls174T cells
Assay type: cell-based, human
Settings: Ls174T
Method: RT-qPCR was performed as in Melotti et al. (2014, supra) using BioRad equipment and reagents. Cells cultured in nitro were treated with the desired concentration of drug in DMEM-F12 and reduced serum (2.5% FBS) for 16h, unless otherwise noted, and collected in Trizol (Sigma) before total RNA extraction and cDNA synthesis. Primers were as in Table 1. HPRT (gene encoding Hypoxanthine phosphoribosyltransferase 1) and βACTIN were used as housekeeping controls for normalization.
Compounds have been tested for the transcriptional modulation of a restricted TCF signature in human colon cancer Ls174T cells. These included the direct targets AXIN2 (gene encoding a protein axis inhibition protein 2), LGR5 (gene encoding encodes leucine-rich repeat-containing G-protein coupled receptor 5) and cMYC (a regulator gene encoding a transcription factor), which should be repressed by WNT-TCF response antagonists and p21 (or CDKN1A, gene encoding a cyclin-dependent kinase inhibitor that inhibits the complexes of CDK2 and CDK1), which should be induced.

[1] = 1.25µM, 16h, batch 3, vs DMSO=1
[2] = 5µM batch 3, 2h post-treatment, vs DMSO=1
[3] = 5µM batch 3, 4h post-treatment, vs DMSO=1
[4] = Table 11, head 'in vitro', concentration not given

## CC1=C(C)C(=O)O[C@@H]([C@](C)(O)[C@]2(O)CC[C@@]3(O)[C@@H]4CC=C5CC=CC(=O)[C@]5(C)[C@H]4CC[C@]23C)C1 [CAP2]
[1]
  AXIN2 expression: 0.6
  LGR5 expression: 0.2
2.5µM, 16h, batch 3, vs DMSO=1
  AXIN2 expression: 0.4
  LGR5 expression: 0.1
[2]
  AXIN2 expression: 0.2
  LGR5 expression: 0.7
[3]
  AXIN2 expression: 0.1
  LGR5 expression: 0.1
5µM, 16h, batch 3, vs DMSO=1
  AXIN2 expression: 0.2
  LGR5 expression: 0.03
10 µM, 16h
  AXIN2 expression: 0.6
  CDKN1A expression: 3.7
  LGR5 expression: 0.7
  cMYC expression: 0.6
10µM, 16h, batch 3, vs DMSO=1
  AXIN2 expression: 0.1
  LGR5 expression: 0.1
2D culture, 2.5µm
  AXIN2 expression level as compared to control: 0.4
Table 7, 1.25µM, vs DMSO=1
  ASCL2 expression: 1.1
  AXIN2 expression: 0.7
  CDKN1A expression: 3.5
  LEF1 expression: 1.2
  LGR5 expression: 0.3
  cMYC expression: 0.04
Table 7, 2.5µM, vs DMSO=1
  ASCL2 expression: 0.4
  AXIN2 expression: 0.4
  CDKN1A expression: 5.4
  LEF1 expression: 0.7
  LGR5 expression: 0.2
  cMYC expression: 0.1
Table 7, 5µM, vs DMSO=1
  ASCL2 expression: 0.1
  AXIN2 expression: 0.3
  CDKN1A expression: 11.4
  LEF1 expression: 0.5
  LGR5 expression: 0.1
  cMYC expression: 0.1
Table 7, 10µM, vs DMSO=1
  ASCL2 expression: 0.1
  AXIN2 expression: 0.1
  CDKN1A expression: 7.6
  LEF1 expression: 0.3
  LGR5 expression: 0.1
  cMYC expression: 0.01
[4]
  ASCL2 expression: 0.1
  AXIN2 expression: 0.3
  LGR5 expression: 0.1
